32 molecules from ChEMBL document CHEMBL1143289, “Potent and selective adenosine A2A receptor antagonists: 1,2,4-Triazolo[1,5-c]pyrimidines” (Bioorg Med Chem Lett, 2009) can be followed below.

A word on the AUC: it is the area under the concentration-time curve, a measure of exposure. A word on the Ki: it is a measure of affinity in units of concentration, obtained from inhibition or displacement.

Data set [1] has as its system Rattus norvegicus. The data set can be described thus: Inhibition of haloperidol-induced catalepsy in rat at 3 mg/kg, po after 1 hr. Type of data set: functional.
The test system of data set [2] is Rattus norvegicus. The data set can be described thus: Inhibition of haloperidol-induced catalepsy in rat at 3 mg/kg, po after 4 hrs. Type of data set: functional.
For data set [3], the species on record is Homo sapiens. As to the kind of experiment: Selectivity for human adenosine A1 receptor over human adenosine A2A receptor.
The subject of data set [4] is Rattus norvegicus. As to the kind of experiment: Inhibition of haloperidol-induced catalepsy in rat at 1 mg/kg, po after 4 hrs. Format: functional.
In data set [5] the test system is Rattus norvegicus. As to the kind of experiment: Inhibition of haloperidol-induced catalepsy in rat at 1 mg/kg, po after 1 hr. Format: functional.
Data set [6] is described as follows: AUC in rat plasma at 3 mg/kg, po. Type of data set: ADME, organism-based. Details: dose 3 mg/kg, route oral.
The target in data set [7] is Adenosine receptor A2a (Homo sapiens, UniProt P29274). The data set can be described thus: Displacement of [3H]SCH58261 from human adenosine A2A receptor expressed in HEK293 cells. Type of data set: cell-based. For orientation: Loss of bound radioactivity is the signal in a displacement assay; it reports binding, not function.
The subject of data set [8] is Rattus norvegicus. The data set can be described thus: Inhibition of haloperidol-induced catalepsy in rat at 0.1 mg/kg, po after 4 hrs. Type of data set: functional.
Data set [9] relates to Rattus norvegicus. The data set can be described thus: Inhibition of haloperidol-induced catalepsy in rat at 0.1 mg/kg, po after 1 hr. The following applies: read-out: INH. Type of data set: functional.
For data set [10], the system named is Rattus norvegicus. As to the kind of experiment: Inhibition of haloperidol-induced catalepsy in rat at 0.3 mg/kg, po after 1 hr. Type of data set: functional. The following applies: read-out: INH.
Data set [11] relates to Rattus norvegicus. The data set can be described thus: Inhibition of haloperidol-induced catalepsy in rat at 0.3 mg/kg, po after 4 hrs. Format: functional. The settings on record: read-out: INH.
The test system of data set [12] is Rattus norvegicus. As to the kind of experiment: Inhibition of haloperidol-induced catalepsy in rat at 0.3 mg/kg, po after 1 hr. Details: scale not given: the % may be the effect or the level left.

Adenosine receptor A2a, sequence (P29274 whole entry): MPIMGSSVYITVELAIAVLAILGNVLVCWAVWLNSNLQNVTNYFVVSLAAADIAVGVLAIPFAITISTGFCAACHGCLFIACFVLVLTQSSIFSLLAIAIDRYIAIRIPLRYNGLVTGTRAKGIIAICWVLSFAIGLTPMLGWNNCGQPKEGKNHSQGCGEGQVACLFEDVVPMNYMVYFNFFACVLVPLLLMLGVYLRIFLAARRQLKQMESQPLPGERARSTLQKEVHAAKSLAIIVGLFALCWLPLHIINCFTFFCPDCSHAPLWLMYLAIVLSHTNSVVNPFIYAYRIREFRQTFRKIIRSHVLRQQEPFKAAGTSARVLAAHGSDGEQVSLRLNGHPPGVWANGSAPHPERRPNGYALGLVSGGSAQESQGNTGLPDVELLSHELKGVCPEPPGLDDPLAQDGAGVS

As to `COCCOc1ccc(N2CCN(CCN(CC3CC3)c3cc4nc(-c5ccco5)nn4c(N)n3)CC2)cc1`, the inhibition in vivo at 3 mg/kg in [1] is 65%; in [2] it was 77%. Besides, the Ratio in data set [3] turned out to be 234. Also, the figures for the inhibition in vivo at 1 mg/kg in data set [4] and in data set [5] were 32% and 7%, respectively. The molecule also returned an AUC in [6] of 245 ng·h/mL. In data set [7], this molecule had a Ki of 0.8 nM.

Turning to `COCCOc1ccc(N2CCN(CCN(C)c3cc4nc(-c5cccc(C#N)c5)nn4c(N)n3)CC2)cc1`, the inhibition in vivo at 3 mg/kg in data set [1] was 29%; in [2], 31%. In addition, the Ratio in data set [3] is 1070. In data set [6], this molecule gave an AUC of 546 ng·h/mL. This molecule also displayed an inhibition constant Ki in data set [7] of 0.7 nM.

Regarding `COCCOc1ccc(N2CCN(CCNc3cc4nc(-c5ccco5)nn4c(N)n3)CC2)cc1`, the Ratio in [3] turned out to be 145. The area under the curve (AUC) in [6] is 103 ng·h/mL. The Ki in data set [7] was 9.5 nM.

Consider `Cc1nccnc1-c1nc2cc(N(C)CCN3CCN(c4ccc(F)cc4F)CC3)nc(N)n2n1`, for which the Ratio in [3] came to 7370. The molecule also displayed an inhibition constant (Ki) in data set [7] of 0.3 nM.

In the case of `Nc1nc(OCCN2CCN(c3ccc(F)cc3F)CC2)cc2nc(-c3ccco3)nn12`, the inhibition in vivo at 3 mg/kg is 25% in [1] and 0% in data set [2]. In data set [3], the Ratio is 275. Besides, in data set [5], the inhibition in vivo at 1 mg/kg worked out at 45%. This molecule also showed an area under the curve (AUC) in data set [6] of 187 ng·h/mL. The inhibition constant (Ki) in data set [7] stood at 6 nM.

For the molecule `COCCOc1ccc(N2CCN(CCN(C)c3cc4nc(-c5ccco5)nn4c(N)n3)CC2)cc1`, the Ratio in data set [3] was 694. For the same molecule, the inhibition in vivo at 1 mg/kg in data set [4] was 0%; in [5] it was 15%. Moreover, the AUC in data set [6] came out at 521 ng·h/mL. In [7], this molecule came in with an inhibition constant (Ki) of 2.5 nM.

For the molecule `COCCN(CCc1ccc(F)cc1)c1cc2nc(-c3ccco3)nn2c(N)n1`, in data set [3], the Ratio is 566. The molecule further yielded an inhibition constant (Ki) in data set [7] of 1 nM.

With `CN(CCN1CCN(c2ccc(F)cc2F)CC1)c1cc2nc(-c3ccco3)nn2c(N)n1`, the inhibition in vivo at 3 mg/kg in data set [1] came to 75%; in data set [2] it was 35%. Moreover, the Ratio in data set [3] amounted to 1580. Also, the values for the inhibition in vivo at 1 mg/kg in data set [4] and in [5] were 30% and 50%, respectively. The same molecule yielded an AUC in data set [6] of 53 ng·h/mL. Besides, in data set [7], the Ki came out at 1 nM.

`COc1ccc(CN(C)c2cc3nc(-c4ccco4)nn3c(N)n2)cc1`: in data set [3], the Ratio was found to be 40. The inhibition constant (Ki) in [7] was determined as 46 nM.

Turning to `CN(CCc1ccc(F)cc1)c1cc2nc(-c3ccco3)nn2c(N)n1`, the Ratio in data set [3] is 248. The inhibitory constant (Ki) in data set [7] amounted to 2 nM.

As for `Nc1nc(N(CCN2CCN(c3ccc(F)cc3F)CC2)CC2CC2)cc2nc(-c3ccco3)nn12`, the values for the inhibition in vivo at 3 mg/kg in data set [1] and in data set [2] were 65% and 41%, respectively. Further, the Ratio in data set [3] was 831. Further, the inhibition in vivo at 1 mg/kg was 34% in data set [4] and 40% in data set [5]. The area under the curve (AUC) in data set [6] came to 17 ng·h/mL. Moreover, the affinity in data set [7], expressed as Ki, was 0.3 nM.

For the molecule `COc1ccc(CCNc2cc3nc(-c4ccco4)nn3c(N)n2)cc1`, in data set [3], the Ratio was 20. This molecule came in with a Ki in data set [7] of 5.8 nM.

As for `COc1ccc(CCSc2cc3nc(-c4ccco4)nn3c(N)n2)cc1`, the Ratio in data set [3] came to 58. The same molecule registered an inhibitory constant (Ki) in [7] of 1.6 nM.

Turning to `CCN(CCN1CCN(c2ccc(F)cc2F)CC1)c1cc2nc(-c3ccco3)nn2c(N)n1`, the Ratio in data set [3] worked out at 312. This molecule showed an AUC in [6] of 50 ng·h/mL. Moreover, the Ki in data set [7] was found to be 0.9 nM.

For the molecule `CCN(CCc1ccc(F)cc1)c1cc2nc(-c3ccco3)nn2c(N)n1`, the Ratio in data set [3] came out at 525. This molecule displayed an inhibition constant Ki in data set [7] of 3 nM.

On to `COCCOc1ccc(N2CCN(CCOc3cc4nc(-c5ccc(Cl)o5)nn4c(N)n3)CC2)cc1`, for which the Ratio in [3] was 40. In addition, the AUC in [6] came out at 6 ng·h/mL. In data set [7], the affinity, expressed as Ki, was 40 nM.

In the case of `COCCOc1ccc(N2CCN(CCSc3cc4nc(-c5ccco5)nn4c(N)n3)CC2)cc1`, the inhibition in vivo at 3 mg/kg in data set [1] and in [2] was 65% in each case. In data set [3], the Ratio came to 965. Moreover, the results for the inhibition in vivo at 1 mg/kg in [4] and in data set [5] were 15% and 50%, respectively. The molecule further gave an AUC in data set [6] of 910 ng·h/mL. Further, affinity in data set [7] was put at a Ki of 1.5 nM.

Consider `COCCOc1ccc(N2CCN(CCn3ncc4c3nc(N)n3nc(-c5ccco5)nc43)CC2)cc1` [PRELADENANT], for which the figures for the inhibition in vivo at 0.1 mg/kg in [8] and in data set [9] were 60% and 25%, respectively. Further, the inhibition in vivo at 1 mg/kg in [4] was 70%; in data set [5] it was 77%. The inhibition in vivo at 0.3 mg/kg in [10] and in data set [11] was 60% in each case.

As for `CCN(CCN1CCN(c2ccc(OCCOC)cc2)CC1)c1cc2nc(-c3ccco3)nn2c(N)n1`, the Ratio in data set [3] came out at 102. In addition, the AUC in [6] came out at 230 ng·h/mL. This molecule returned an inhibitory constant (Ki) in data set [7] of 1.5 nM.

In the case of `COc1ccc(CCCN(C)c2cc3nc(-c4ccco4)nn3c(N)n2)cc1`, the Ratio in data set [3] was 76. For the same molecule, the Ki in data set [7] was found to be 5.7 nM.

For `Nc1nc(SCCN2CCN(c3ccc(F)cc3F)CC2)cc2nc(-c3ccco3)nn12`, the inhibition in vivo at 3 mg/kg in data set [1] amounted to 50%; in [2], 45%. In [3], the Ratio stood at 365. The inhibition in vivo at 1 mg/kg in data set [4] stood at 5%; in [5], 50%. Moreover, in data set [6], the AUC amounted to 229 ng·h/mL. Besides, the affinity in data set [7], expressed as Ki, was 1.4 nM.

`CN(CCN1CCN(c2ccc(F)cc2F)CC1)c1cc2nc(-c3cccc(C#N)c3)nn2c(N)n1`: the inhibition in vivo at 3 mg/kg in [1] was 35%; in [2], 14%. The Ratio in data set [3] is 620. Besides, the area under the curve (AUC) in data set [6] was found to be 1300 ng·h/mL. The same molecule displayed a Ki in [7] of 1.8 nM.

Turning to `COCCN(CCN1CCN(c2ccc(F)cc2F)CC1)c1cc2nc(-c3ccco3)nn2c(N)n1`, the inhibition in vivo at 3 mg/kg stood at 56% in data set [1] and 57% in data set [2]. In addition, the Ratio in data set [3] worked out at 1060. In data set [7], this molecule registered an inhibition constant (Ki) of 0.5 nM.

Turning to `COCCOc1ccc(N2CCN(CCOc3cc4nc(-c5ccco5)nn4c(N)n3)CC2)cc1`, the Ratio in data set [3] turned out to be 405. Besides, the inhibition in vivo at 1 mg/kg in data set [4] and in data set [5] was 25% throughout. The molecule also returned an AUC in [6] of 943 ng·h/mL. The same molecule showed an inhibition constant (Ki) in data set [7] of 2.8 nM.

For `COCCOc1ccc(N2CCN(CCN(CCOC)c3cc4nc(-c5ccco5)nn4c(N)n3)CC2)cc1`, the inhibition in vivo at 3 mg/kg in data set [1] was found to be 57%; in data set [2] it was 37%. Further, in [3], the Ratio was 338. For the same molecule, the inhibition in vivo at 1 mg/kg in [4] stood at 6%; in data set [5], 29%. The molecule further registered an exposure (AUC) in data set [6] of 355 ng·h/mL. In data set [7], this molecule had a Ki of 0.7 nM.

For `COc1ccc(CCN(C)c2cc3nc(-c4ccco4)nn3c(N)n2)cc1`, in [3], the Ratio was 473. Further, in [7], the Ki was 1.8 nM.

For the molecule `Nc1nc2c(cnn2CCN2CCN(c3ccc(F)cc3F)CC2)c2nc(-c3ccco3)nn12`, the inhibition in vivo at 1 mg/kg in [4] was found to be 80%; in data set [5], 75%. The molecule further yielded an Activity in data set [12] of 75%.

For `COc1ccc(CCOc2cc3nc(-c4ccco4)nn3c(N)n2)cc1`, the Ratio in data set [3] was 58. The same molecule yielded an inhibition constant (Ki) in data set [7] of 2.8 nM.

On to `COCCOc1ccc(N2CCN(CCN(C)c3cc4nc(-c5ccccc5)nn4c(N)n3)CC2)cc1`, for which, in data set [3], the Ratio turned out to be 56. The molecule also came in with a Ki in data set [7] of 25 nM.

Consider `COc1ccc(CCCc2cc3nc(-c4ccco4)nn3c(N)n2)cc1`, for which, in [3], the Ratio came to 31. This molecule yielded a Ki in data set [7] of 11.5 nM.

Consider `Nc1nc(NCCN2CCN(c3ccc(F)cc3F)CC2)cc2nc(-c3ccco3)nn12`, for which the Ratio in data set [3] amounted to 262. In addition, the affinity in data set [7] corresponds to a Ki of 1.5 nM.

Regarding `CN(CCN1CCN(c2ccc(F)cc2F)CC1)c1cc2nc(-c3cnco3)nn2c(N)n1`, in data set [3], the Ratio was 7000. The molecule also yielded an inhibition constant (Ki) in data set [7] of 0.3 nM.
